According to the supplement of paper PMC8671470:

How the values were obtained:
Settings in all cases: 72 h
MV4-11 [1] = test: cell viability (% survival relative to DMSO control, bortezomib = 0%); higher = less cytotoxic
Procedure, shortened: (§1)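 Seeding density for each of the 10 AML and 5 CML cell lines was titrated to the linear growth range. Cells went into 384-well plates pre-printed in duplicate with compounds at 1, 10, 100, 1000 or 10000 nM and were held for 72 h at 37 °C with 5% CO2. CellTiter-Glo luminescence then provided the readout. Percent survival is expressed relative to vehicle at 100% and a 10 µM positive control at 0%, averaged over duplicates.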

KCL-22 = test: as above
Procedure, shortened: as §1

NOMO-1 = test: as above
Procedure, shortened: as §1

Mono-Mac-6 = test: as above
Procedure, shortened: as §1

BV-173 = test: as above
Procedure, shortened: as §1

KU-812 = test: as above
Procedure, shortened: as §1

THP-1 = test: as above
Procedure, shortened: as §1

MOLM-13 = test: as above
Procedure, shortened: as §1

HL-60 [2] = test: as above
Procedure, shortened: as §1

ML-2 = test: as above
Procedure, shortened: as §1

SHI-1 = test: as above
Procedure, shortened: as §1

K-562 = test: as above
Procedure, shortened: as §1

HEL = test: as above
Procedure, shortened: as §1

LAMA-84 = test: as above
Procedure, shortened: as §1

KG-1 = test: as above
Procedure, shortened: as §1

MV4-11 [3] = system: MV4-11
Procedure, shortened: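 The IC50 was read from log-logistic dose–response fits. Fifteen myeloid leukaemia lines were exposed for 72 h at 37 °C with 5% CO2 to five tenfold doses from 1 to 10,000 nM in duplicate. ATP luminescence, normalised to vehicle and to a 10 µM positive control, was fitted with four parameters.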

HL-60 [4] = test: area under dose-response curve (viability, 1 nM-10 uM) (fraction (0-1)); higher = more sensitive
Procedure, shortened: (§2)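 Four-parameter log-logistic fits in drc and PharmacoGx supplied area under the curve where it is given. Underlying viability came from CellTiter-Glo, normalised to DMSO and proteasome-inhibitor wells, with the proteasome inhibitor at 10 μM. HL-60 cells in RPMI 1640 plus 10% FBS had been rescreened against the full library at five tenfold concentrations of 1–10,000 nM, in duplicate on 384-well plates, with DMSO or 100 nM of one of three metabolic inhibitors, for 72 h at 37 °C, 5% CO2.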

HL-60 [5] = test: cell viability (% survival relative to DMSO control); higher = less cytotoxic
Procedure, shortened: as §2

Nc1nc(Cl)nc2c1ncn2[C@H]1C[C@H](O)[C@@H](CO)O1 [Cladribine]
Settings | area under dose-response curve, co-treatment: AZD3965 100 nM | area under dose-response curve, co-treatment: DMSO vehicle | area under dose-response curve, co-treatment: GSK2194069 100 nM | area under dose-response curve, co-treatment: pictilisib 100 nM | cell viability, 1 nM [%] | cell viability, 10 nM [%] | cell viability, 100 nM [%] | cell viability, 1000 nM [%] | cell viability, 10000 nM [%]
BV-173 | – | – | – | – | 128 | 4.77 | -0.0212 | 0.000225 | -0.197
HEL | – | – | – | – | 105 | 99.2 | 3.91 | 0.404 | 0.141
HL-60 [2] | – | – | – | – | 108 | 88.3 | 26.6 | 1.62 | -0.177
HL-60 [4] | 0.45 | 0.394 | 0.459 | 0.515 | – | – | – | – | –
K-562 | – | – | – | – | 110 | 97.5 | 79.8 | 28.8 | 20.5
KCL-22 | – | – | – | – | 114 | 111 | 68.9 | 15.6 | 7.11
KG-1 | – | – | – | – | 101 | 105 | 102 | 9.9 | 5.04
KU-812 | – | – | – | – | 112 | 101 | 53.3 | 16.5 | 5.32
LAMA-84 | – | – | – | – | 112 | 100 | 51.1 | 5.53 | 1.72
ML-2 | – | – | – | – | 117 | 100 | 85.5 | 7.04 | 2.51
MOLM-13 | – | – | – | – | 100 | 87.2 | 4.48 | 0.607 | -0.282
MV4-11 [1] | – | – | – | – | 129 | 81 | -0.607 | -0.0489 | -0.0474
Mono-Mac-6 | – | – | – | – | 113 | 82.5 | 1.25 | 0.0892 | -0.125
NOMO-1 | – | – | – | – | 111 | 101 | 21.5 | 1.41 | 0.34
SHI-1 | – | – | – | – | 87.7 | 88.7 | 13.6 | 0.494 | -0.0158
THP-1 | – | – | – | – | 102 | 93.7 | 102 | 24.2 | 26.3

Settings | IC50 (cell viability) [µM]
MV4-11 [3] | 0.0202

cell viability [%], HL-60 [5]
Settings | 0.001 µM | 0.01 µM | 0.1 µM | 1 µM | 10 µM
co-treatment: AZD3965 100 nM | 100 | 104 | 67.648 | 3.68 | 3.27
co-treatment: DMSO vehicle | 101 | 104 | 88.9 | 3.39 | 4.06
co-treatment: GSK2194069 100 nM | 98.2 | 101 | 62.7 | 3.78 | 4.3
co-treatment: pictilisib 100 nM | 98.9 | 102 | 37.1 | 3.81 | 3.84

C[C@H](NC(=O)c1sccc1OCc1ccc(Cl)cc1)c1ccccc1
Settings | area under dose-response curve, co-treatment: AZD3965 100 nM | area under dose-response curve, co-treatment: DMSO vehicle | area under dose-response curve, co-treatment: GSK2194069 100 nM | area under dose-response curve, co-treatment: pictilisib 100 nM | cell viability, 1 nM [%] | cell viability, 10 nM [%] | cell viability, 100 nM [%] | cell viability, 1000 nM [%] | cell viability, 10000 nM [%]
BV-173 | – | – | – | – | 93.5 | 99.7 | 89.2 | 90.1 | 50.4
HEL | – | – | – | – | 98.3 | 101 | 97.6 | 97.5 | 91.4
HL-60 [2] | – | – | – | – | 90.6 | 84.1 | 106 | 35.7 | 56
HL-60 [4] | < 0.0301 | < 0.0301 | < 0.0301 | < 0.0301 | – | – | – | – | –
K-562 | – | – | – | – | 96.4 | 93.3 | 87.6 | 97.2 | 62
KCL-22 | – | – | – | – | 111 | 106 | 97.8 | 84 | 65.6
KG-1 | – | – | – | – | 94 | 103 | 92.1 | 91.9 | 61.4
KU-812 | – | – | – | – | 84.6 | 96.1 | 94.8 | 95.8 | 59.8
LAMA-84 | – | – | – | – | 94.2 | 100 | 94 | 98.9 | 65.4
ML-2 | – | – | – | – | 104 | 108 | 98.8 | 106 | 72.4
MOLM-13 | – | – | – | – | 93.5 | 95.7 | 96.8 | 109 | 102
MV4-11 [1] | – | – | – | – | 89.3 | 102 | 83 | 96.1 | 59.9
Mono-Mac-6 | – | – | – | – | 88.8 | 102 | 102 | 98.3 | 88.8
NOMO-1 | – | – | – | – | 96.6 | 108 | 99.3 | 102 | 101
SHI-1 | – | – | – | – | 82.5 | 98.7 | 97.9 | 95.4 | 75.7
THP-1 | – | – | – | – | 101 | 103 | 99 | 103 | 92.1

Settings | IC50 (cell viability) [µM]
MV4-11 [3] | > 10

cell viability [%], HL-60 [5]
Settings | 0.001 µM | 0.01 µM | 0.1 µM | 1 µM | 10 µM
co-treatment: AZD3965 100 nM | 70.8 | 87.5 | 99.14 | 103 | 92.2
co-treatment: DMSO vehicle | 99.5 | 98.9 | 96.69 | 104 | 97.6
co-treatment: GSK2194069 100 nM | 83.9 | 89.91 | 98.7 | 74.5 | 92.5
co-treatment: pictilisib 100 nM | 90.8 | 95.7 | 94.9 | 95.2 | 108

CN(C)C(=O)[C@H](O)[C@H](Cc1ccccc1)NC(=O)c1cc2cc(Cl)ccc2[nH]1
Settings | area under dose-response curve, co-treatment: AZD3965 100 nM | area under dose-response curve, co-treatment: DMSO vehicle | area under dose-response curve, co-treatment: GSK2194069 100 nM | area under dose-response curve, co-treatment: pictilisib 100 nM | cell viability, 1 nM [%] | cell viability, 10 nM [%] | cell viability, 100 nM [%] | cell viability, 1000 nM [%] | cell viability, 10000 nM [%]
BV-173 | – | – | – | – | 88.3 | 110 | 98.4 | 105 | 73.2
HEL | – | – | – | – | 98.5 | 102 | 99.1 | 112 | 88.1
HL-60 [2] | – | – | – | – | 85.4 | 100 | 108 | 174 | 89.1
HL-60 [4] | < 0.0301 | < 0.0301 | < 0.0301 | < 0.0301 | – | – | – | – | –
K-562 | – | – | – | – | 79 | 84.3 | 94.3 | 105 | 79
KCL-22 | – | – | – | – | 107 | 98.3 | 108 | 105 | 91.6
KG-1 | – | – | – | – | 102 | 93.9 | 95.2 | 114 | 80.3
KU-812 | – | – | – | – | 98.1 | 96 | 102 | 104 | 62.6
LAMA-84 | – | – | – | – | 94.6 | 97.6 | 114 | 107 | 83.3
ML-2 | – | – | – | – | 110 | 100 | 106 | 120 | 85
MOLM-13 | – | – | – | – | 97.6 | 98.6 | 101 | 123 | 88.1
MV4-11 [1] | – | – | – | – | 97.9 | 83.8 | 98.4 | 102 | 68.6
Mono-Mac-6 | – | – | – | – | 94.8 | 97.8 | 103 | 96.5 | 83.8
NOMO-1 | – | – | – | – | 101 | 102 | 106 | 106 | 95.4
SHI-1 | – | – | – | – | 106 | 97.8 | 115 | 114 | 99.6
THP-1 | – | – | – | – | 96.3 | 95.8 | 103 | 104 | 91.8

Settings | IC50 (cell viability) [µM]
MV4-11 [3] | > 10

cell viability [%], HL-60 [5]
Settings | 0.001 µM | 0.01 µM | 0.1 µM | 1 µM | 10 µM
co-treatment: AZD3965 100 nM | 105 | 101 | 98.4 | 101 | 100.2
co-treatment: DMSO vehicle | 101 | 102.3 | 95.7 | 100 | 110
co-treatment: GSK2194069 100 nM | 102 | 110 | 101 | 100 | 99.4
co-treatment: pictilisib 100 nM | 97.4 | 107 | 93.8 | 96 | 97.3
